Laboratory results reported in US6800727B2, “Peptides with increased + charge and hydrophobicity by substituting one or more amino acids of CA-MA peptide and pharmaceutical compositions containing thereof” (Chosun University, priority 2001, dated 2004).
Residues, ends and D or L forms follow the SMILES beside them.

Columns and labels:
Pseudomonas aeruginosa [1] = assay: Anti-bacterial activity observation with SEM; assay type: cell-based; conditions: 1.56 μM, 30 minutes at 37° C.; FIG. 4
Protocol: (§1) Bacillus subtilis (Gram-positive) and Pseudomonas aeruginosa (Gram-negative) cells were cultured in LB medium (1% bacto trypton, 0.5% bacto yeast extract, 1% sodium chloride) to mid-log phase, and the cells were diluted with 10 mM of Na-phosphate buffer containing 100 mM of NaCl) at the concentration of 10^8 cells/ml. Synthetic peptide of the present invention and CA-MA peptide (as a comparative group) were added into the diluted cell culture medium (final conc. 0.78 μM in B. subtilis culture, 1.56 μM in P. aeruginosa culture), followed by further culturing for 30 minutes at 37° C. 0.2 M Na-phosphate buffer containing 5% glutaraldehyde was added into the medium, and the cells were fixed for 2 hours at 4° C. The cells were filtered with isopore filters (0.2 μm pore size, Millipore, Bedford, Mass., USA), and washed with 0.1 M Na-cacodylate buffer (pH 7.4). The filters were treated with 1% osmium tertoxide and dehydrated.

Bacillus subtilis [2] = assay: Anti-bacterial activity observation with SEM; assay type: cell-based; conditions: 0.78 μM, 30 minutes at 37° C.; FIG. 3
Protocol: as §1

Pseudomonas aeruginosa [3] = assay: Visualization of anti-bacterial activity, colonies on plate; assay type: cell-based; conditions: 4×10^5 P. aeruginosa cells, 4 μM peptide, 2 hours at 37° C.; FIG. 2
Protocol: (§2) In order to visualize the antibiotic activity of the synthetic peptide of the present invention on the plate, Pseudomonas aeruginosa and Bacillus subtilis were inoculated in LB medium (1% bacto trypton, 0.5% yeast extract, 1% sodium chloride), and cultured to mid-log phase. Particularly, 4×10^5 P. aeruginosa cells were loaded into the medium, and 4 μM of synthetic peptide was added thereto. 4×10^5 B. subtilis cells were also loaded into the medium, and 1 μM of synthetic peptide was added thereto. After culturing for 2 hours at 37° C., the culture fluid was smeared on LB plate to visualize the cells. At this time, CA-MA peptide was used as a comparative group.

[4] = Acute toxicity test in rat via non-oral administration; assay type: in vivo; conditions: SD, in vivo, 1 g/kg/15 ml, intravenous, read-out: level up to which no toxic change is caused
Protocol: (§3) The following experiments were performed to see if the synthetic peptide of the present invention has acute toxicity in rat.
(§4) 6-week old SPF SD line rats were used in the tests for acute toxicity. Synthetic peptide of the present invention represented by the SEQ. ID. NO: 2 was suspended in 0.5% methyl cellulose solution and intravenous injected once to 2 rats per group at the dosage of 1 g/kg/15 ml. Death, clinical symptoms, and weight change in rats were observed, hematological tests and biochemical tests of blood were performed, and any abnormal signs in the gastrointestinal organs of chest and abdomen were checked with eyes during autopsy.

SPF SD line rats = assay: as above; assay type: in vivo; conditions: single intravenous injection, 1 g/kg/15 ml in 0.5% methyl cellulose
Protocol: as §3, §4

[5] = system: Calu-6 (a human lung cancer cell line); assay: Anticancer activity, MTT assay; assay type: cell-based; conditions: for anti-cancer activity: Calu-6
Protocol: (§5) In order to measure the anticancer activity of the synthetic peptide of the present invention, the present inventors performed MTT assay with Calu-6 (a human lung cancer cell line), SNU 601 (a human stomach cancer cell line) and Jurkat (a T-cell lymphoma cell line) cells. Firstly, 90 μl of each cell line (2×10^5 cells/ml) was loaded into each well of 96-well plate. At this time, only medium contained wells were used as a control. After shaking well, the cells were cultured in CO2 incubator for 3 days. Formazan produced by mitochondria enzymes of living cells was dissolved in 100 μl of 0.04 N HCl-isopropanol, and finally, OD540 was measured by using ELISA reader. The anti-cancer activity of antibiotic peptide of the present invention was represented by a percentage (OD of synthetic peptide treated well/OD of control×100).

[6] = system: SNU 601 (a human stomach cancer cell line); assay: Anticancer activity, MTT assay; assay type: cell-based; conditions: for anti-cancer activity: SNU 601
Protocol: as §5

[7] = system: Jurkat (a T-cell lymphoma cell line); assay: Anticancer activity, MTT assay; assay type: cell-based
Protocol: as §5

[8] = system: Human red blood corpuscles; assay: Cytotoxicity: hemolysis capacity; assay type: cell-based; conditions: up to 12.5 μM
Protocol: Human red blood corpuscles were diluted with PBS (pH 7.0) to the concentration of 8%, and loaded into each wells of 96-well plate. Synthetic peptide of the present invention was half-fold diluted consecutively from 12.5 μM/well, followed by reacting with the red blood corpuscles for 1 hour at 37° C. After centrifugation, OD414 was measured to determine the amount of hemoglobin in the supernatant. At this time, CA-MA peptide was used as a comparative group and melittin was used as a positive control. In order to investigate the level of hemolysis, 1% triton X-100 was added, and then OD was measured. Hemolysis capacity of triton X-100 was regarded as 100%, with which hemolysis capacity of the synthetic peptide was compared and calculated according to the below <Mathematical Formula 1>.
% hemolysis=(OD A−OD B/OD C−OD B)×100

Pseudomonas aeruginosa [9] = assay: Membrane dynamic condition, DPH fluorescence anisotropy; assay type: cell-based; conditions: 6.25 μM˜0.097 μM, 2 hours at 37° C.; FIG. 5B
Protocol: (§6) The present inventors performed the below experiment in order to investigate the dynamic condition of lipid membrane of bacteria cells treated with synthetic peptide of the present invention. Particularly, B. subtilis (Gram-positive) and P. aeruginosa (Gram-negative) were cultured to mid-log phase in LB medium (1% bacto trypton, 0.5% bacto yeast extract, 1% sodium chloride). And the antibiotic peptide of the present invention and CA-MA peptide (as a comparative group) were treated (6.25 μM˜0.097 μM, half-fold diluted) thereto. Each strains were further cultured for 2 hours at 37° C. After fixing with 0.25% formaldehyde for 1 hour at room temperature, cultured cells were washed with PBS (pH 7.4), and then frozen in liquid nitrogen. For the fluorescent labeling, PBS (pH 7.4) was added until OD450 reached to 0.25, and DPH (1,6-diphenyl-1,3,5-hexatriene) dissolved in tetrahydrofuran was added (final conc. […]), followed by further culturing for 45 minutes at 37° C. Steady-state fluorescence anisotropy was determined by measuring the strength of fluorescence with spectrofluorometer (HITACHI F-3010, Tokyo, Japan) at 330 nm and 450 nm.

Bacillus subtilis [10] = assay: as above; assay type: cell-based; conditions: 6.25 μM˜0.097 μM, 2 hours at 37° C.; FIG. 5A
Protocol: as §6

[11] = system: Bacillus subtilis (KCTC 1918); assay: MIC measurement, anti-bacterial activity; assay type: cell-based; conditions: summary of the strains of Table 1
Protocol: In order to measure the anti-bacterial activity of the peptide synthesized in Example 1, minimum inhibitory concentration (MIC) of the peptide was measured.
The present inventors used Bacillus subtilis (KCTC 1918) and Staphylococus epidermidis (KCTC 1917) as Gram-positive bacteria, and Pseudomonas aeruginosa (KCTC 1637) and Salmonella typhimurium (KCTC 1926) as Gram-negative bacteria for this experiment. All the bacteria used in this experiment were given by Korea Research Institute of Bioscience and Biotechnology (KRIBB). Each bacterial strain was cultured in LB medium(1% bacto-trypton, 0.5% bacto-yeast extract, 1% sodium chloride) to the mid-log phase, and diluted with 1% bacto-peptone medium at the concentration of 1×10^4 cells/100 μl. The diluted bacteria were loaded into micro-titrate plate. Antibiotic peptide synthesized in Example 1 and CA-MA peptide (as a comparative group) were half-fold diluted consecutively from 25 μM/well, and added into the plate for culture at 37° C. for 6 hours. Finally, the MIC of each strain was determined by observing OD620 with a micro-titrate plate reader.

Bacillus subtilis [12] = assay: Visualization of anti-bacterial activity, colonies on LB plate; assay type: cell-based; conditions: 4×10^5 B. subtilis cells, 1 μM peptide, 2 hours at 37° C.; FIG. 1
Protocol: as §2

[13] = system: Candida albicans (TIMM 1768); assay: Anti-fungal activity, MIC by MTT assay; assay type: cell-based; conditions: summary of the fungi of Table 2
Protocol: In order to measure the anti-fungal activity of the synthetic peptide of the present invention, the present inventors performed MTT assay with Candida albicans (TIMM 1768) and Tricosphoron beigelil (KCTC 7707). Particularly, PDB medium (20% potato infusion frum, 2% bacto dextrose) containing various fungi was loaded into the wells (100 μl/well) of 96-well plate. Antibiotic peptides of the present invention and CA-MA peptide (as a comparative group) were half-fold diluted consecutively, and added into the plate for further culturing. 10 μl of MTT solution ([…], 5 mg/ml) was added into each well followed by further culturing for 5-6 hours. Formazan produced by mitochondria enzymes of living cells was dissolved in 100 μl of 0.04 N HCl-isopropanol. Finally, OD570 was measured by using ELISA reader to determine the degree of MIC.

Structure (SMILES): CC(C)C[C@H](NC(=O)[C@H](CCCCN)NC(=O)[C@H](CCCCN)NC(=O)[C@H](CC(C)C)NC(=O)[C@H](CC(C)C)NC(=O)[C@H](CCCCN)NC(=O)[C@H](CCCCN)NC(=O)[C@H](CC(C)C)NC(=O)[C@H](CC(C)C)NC(=O)[C@@H]1CCCN1C(=O)[C@@H]1CCCN1C(=O)[C@@H]1CCCN1C(=O)[C@H](CCCCN)NC(=O)[C@H](CCCCN)NC(=O)[C@H](CC(C)C)NC(=O)[C@H](CC(C)C)NC(=O)[C@H](CCCCN)NC(=O)[C@H](CCCCN)NC(=O)[C@H](Cc1c[nH]c2ccccc12)NC(=O)[C@@H](N)CCCCN)C(=O)O [Synthetic peptide (SEQ ID. NO: 2)] (H-KWKKLLKKPPPLLKKLLKKL-OH; N-terminus and C-terminus assumed)
- destroyed cells observed with SEM, versus control and CA-MA peptide (Pseudomonas aeruginosa [1]): much more destroyed cells
- destroyed cells observed with SEM, versus control and CA-MA peptide (Bacillus subtilis [2]): much more destroyed cells
- anti-bacterial activity on agar plate, compared to CA-MA (Pseudomonas aeruginosa [3]): remarkable anti-bacterial activity
- NOAEL [4]: ≥ 10 mg/kg
- clinical symptoms, weight change, death (SPF SD line rats): did not cause any specific clinical symptoms, weight change, or death
- hematological tests, biochemical tests of blood, autopsy (SPF SD line rats): No change was observed
- anti-cancer activity compared with CA-MA peptide ([5]; Calu-6, 3 days, FIG. 6A): higher than that of CA-MA peptide
- anti-cancer activity ([5]; over 10 μM concentration): complete restrain of cancer cell growth
- anti-cancer activity ([5]; to the concentration of 1 μM): did not showed anti-cancer activity
- anti-cancer activity compared with CA-MA peptide ([6]; SNU 601, 3 days, FIG. 6C): higher than that of CA-MA peptide
- anti-cancer activity ([6]; over 10 μM concentration): complete restrain of cancer cell growth
- anti-cancer activity ([6]; to the concentration of 1 μM): did not showed anti-cancer activity
- anti-cancer activity compared with CA-MA peptide ([7]; 3 days, FIG. 6B): higher than that of CA-MA peptide
- anti-cancer activity ([7]; over 10 μM concentration): complete restrain of cancer cell growth
- anti-cancer activity ([7]; to the concentration of 1 μM): did not showed anti-cancer activity
- cytotoxicity (hemolysis), in words [8]: did not show any cytotoxicity
- DPH-labeled fluorescent materials intercalated at lower position of membrane, compared to CA-MA peptide (Pseudomonas aeruginosa [9]): 15-20%
- DPH-labeled fluorescent materials intercalated at lower position of membrane, compared to CA-MA peptide (Bacillus subtilis [10]): 15-20%
- antibiotic activity relative to CA-MA peptide [11]: around 4 times
- colonies on LB plate (Bacillus subtilis [12]): no colony was found
- anti-fungal activity relative to CA-MA peptide [13]: about 2 times

Structure (SMILES): CC[C@H](C)[C@H](NC(=O)CNC(=O)[C@@H](NC(=O)[C@H](CCCCN)NC(=O)[C@H](CCCCN)NC(=O)[C@H](Cc1ccccc1)NC(=O)[C@H](CC(C)C)NC(=O)[C@H](CCCCN)NC(=O)[C@H](Cc1c[nH]c2ccccc12)NC(=O)[C@@H](N)CCCCN)[C@@H](C)CC)C(=O)NCC(=O)N[C@@H](CCCCN)C(=O)N[C@@H](Cc1ccccc1)C(=O)N[C@@H](CC(C)C)C(=O)N[C@@H](Cc1c[nH]cn1)C(=O)N[C@@H](CO)C(=O)N[C@@H](C)C(=O)N[C@@H](CCCCN)C(=O)N[C@@H](CCCCN)C(=O)N[C@@H](Cc1ccccc1)C(=O)O [CA-MA] (H-KWKLFKKIGIGKFLHSAKKF-OH)
- cytotoxicity (hemolysis), in words [8]: did not show any cytotoxicity

Structure (SMILES): CC[C@H](C)[C@H](NC(=O)CN)C(=O)NCC(=O)N[C@@H](C)C(=O)N[C@H](C(=O)N[C@@H](CC(C)C)C(=O)N[C@@H](CCCCN)C(=O)N[C@H](C(=O)N[C@@H](CC(C)C)C(=O)N[C@H](C(=O)N[C@H](C(=O)NCC(=O)N[C@@H](CC(C)C)C(=O)N1CCC[C@H]1C(=O)N[C@@H](C)C(=O)N[C@@H](CC(C)C)C(=O)N[C@H](C(=O)N[C@@H](CO)C(=O)N[C@@H](Cc1c[nH]c2ccccc12)C(=O)N[C@H](C(=O)N[C@@H](CCCCN)C(=O)N[C@@H](CCCNC(=N)N)C(=O)N[C@@H](CCCCN)C(=O)N[C@@H](CCCNC(=N)N)C(=O)N[C@@H](CCC(N)=O)C(=O)N[C@@H](CCC(N)=O)C(N)=O)[C@@H](C)CC)[C@@H](C)CC)[C@@H](C)O)[C@@H](C)O)C(C)C)C(C)C [Melittin, melittin]
- cytotoxicity (hemolysis), in words [8]: high cytotoxicity
